{"source": "patent US6485921B1", "about": "“UBCLP and uses thereof” (Millennium Pharmaceuticals, Inc., priority 1998, dated 2002)", "tested_on": "UBCLP expression in LNCaP cells", "test": "Expression of UBCLP in LNCaP prostate cancer cells treated with casodex or R1881", "type": "cell-based, human", "details": "100 nM casodex versus 1 nM R1881, RPMI-1640 with 5% charcoal stripped serum, mRNA expression analysis", "procedure": "In order to examine the effect of casodex, an anti-androgen, on the expression of UBCLP, LNCaP cells (androgen-responsive prostate cancer cells) were grown to 70% confluence in RPMI-1640 supplemented with 10% FBS. The cultures were then pretreated for 24 hours in dye-free RPMI-1640 containing 5% charcoal stripped serum. The cultures were then treated with either 1 nM R1881 or 100 nM casodex in RPMI-1640 containing 5% charcoal stripped serum prior to harvesting an extraction of total mRNA for expression analysis.\nIn CWR22 cells (a human primary prostate xenograft cell line; Wainstein et al. (1994) Cancer Res. 54:6059-52) implanted in male nude mice, UBCLP expression levels decrease about 5-fold in 21 days after castration. In CWR22R cells (Chen et al. (1998) Cancer Res 58:2777-83), an androgen-independent variant of CWR22 cells, UBCLP appears to be constitutively expressed with respect to androgen."}
{"compound": "CC(O)(CS(=O)(=O)c1ccc(F)cc1)C(=O)Nc1ccc(C#N)c(C(F)(F)F)c1", "note": "(stereo not shown) [Casodex]", "values": [{"measurement": "drop in UBCLP expression", "value": 3, "unit": "fold"}]}
